Assay results as given in ChEMBL document CHEMBL3774354, “Discovery of Selective Histone Deacetylase 6 Inhibitors Using the Quinazoline as the Cap for the Treatment of Cancer” (J Med Chem, 2016).

Key:
Ramos = assay: Antitumor activity against human Ramos cells xenografted in NOD/SCID mouse assessed as tumor mass change at 10 mg/kg, ip q2d for 6 days; type: functional
Mus musculus = assay: Toxicity in NOD/SCID mouse xenografted with human Ramos cells assessed as change in body weight at 10 mg/kg, ip q2d for 6 days; conditions: in vivo, 144 h
Histone deacetylase 1 = Histone deacetylase 1 (Homo sapiens, UniProt Q13547)
Sequence of Histone deacetylase 1 (Q13547 whole entry): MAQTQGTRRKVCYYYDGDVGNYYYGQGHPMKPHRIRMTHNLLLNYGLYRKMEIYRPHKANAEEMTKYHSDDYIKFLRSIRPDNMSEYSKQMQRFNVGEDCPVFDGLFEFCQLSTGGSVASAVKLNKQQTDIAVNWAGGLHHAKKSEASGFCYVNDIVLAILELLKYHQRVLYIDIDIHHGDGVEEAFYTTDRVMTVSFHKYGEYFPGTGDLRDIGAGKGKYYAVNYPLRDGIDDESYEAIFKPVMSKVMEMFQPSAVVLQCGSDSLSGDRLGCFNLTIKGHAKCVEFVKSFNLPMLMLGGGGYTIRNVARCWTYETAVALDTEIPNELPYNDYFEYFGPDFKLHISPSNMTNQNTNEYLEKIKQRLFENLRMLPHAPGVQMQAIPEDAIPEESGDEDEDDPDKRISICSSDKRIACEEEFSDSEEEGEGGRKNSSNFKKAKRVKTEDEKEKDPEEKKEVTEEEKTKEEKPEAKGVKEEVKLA
Description: Inhibition of human recombinant HDAC1 using AMC labeled AC-peptide as substrate incubated for 1 hr by fluorescence analysis

[1] = biological target: T1, Protein deacetylase HDAC6 (Homo sapiens, UniProt Q9UBN7)
T1 sequence (Q9UBN7 whole entry): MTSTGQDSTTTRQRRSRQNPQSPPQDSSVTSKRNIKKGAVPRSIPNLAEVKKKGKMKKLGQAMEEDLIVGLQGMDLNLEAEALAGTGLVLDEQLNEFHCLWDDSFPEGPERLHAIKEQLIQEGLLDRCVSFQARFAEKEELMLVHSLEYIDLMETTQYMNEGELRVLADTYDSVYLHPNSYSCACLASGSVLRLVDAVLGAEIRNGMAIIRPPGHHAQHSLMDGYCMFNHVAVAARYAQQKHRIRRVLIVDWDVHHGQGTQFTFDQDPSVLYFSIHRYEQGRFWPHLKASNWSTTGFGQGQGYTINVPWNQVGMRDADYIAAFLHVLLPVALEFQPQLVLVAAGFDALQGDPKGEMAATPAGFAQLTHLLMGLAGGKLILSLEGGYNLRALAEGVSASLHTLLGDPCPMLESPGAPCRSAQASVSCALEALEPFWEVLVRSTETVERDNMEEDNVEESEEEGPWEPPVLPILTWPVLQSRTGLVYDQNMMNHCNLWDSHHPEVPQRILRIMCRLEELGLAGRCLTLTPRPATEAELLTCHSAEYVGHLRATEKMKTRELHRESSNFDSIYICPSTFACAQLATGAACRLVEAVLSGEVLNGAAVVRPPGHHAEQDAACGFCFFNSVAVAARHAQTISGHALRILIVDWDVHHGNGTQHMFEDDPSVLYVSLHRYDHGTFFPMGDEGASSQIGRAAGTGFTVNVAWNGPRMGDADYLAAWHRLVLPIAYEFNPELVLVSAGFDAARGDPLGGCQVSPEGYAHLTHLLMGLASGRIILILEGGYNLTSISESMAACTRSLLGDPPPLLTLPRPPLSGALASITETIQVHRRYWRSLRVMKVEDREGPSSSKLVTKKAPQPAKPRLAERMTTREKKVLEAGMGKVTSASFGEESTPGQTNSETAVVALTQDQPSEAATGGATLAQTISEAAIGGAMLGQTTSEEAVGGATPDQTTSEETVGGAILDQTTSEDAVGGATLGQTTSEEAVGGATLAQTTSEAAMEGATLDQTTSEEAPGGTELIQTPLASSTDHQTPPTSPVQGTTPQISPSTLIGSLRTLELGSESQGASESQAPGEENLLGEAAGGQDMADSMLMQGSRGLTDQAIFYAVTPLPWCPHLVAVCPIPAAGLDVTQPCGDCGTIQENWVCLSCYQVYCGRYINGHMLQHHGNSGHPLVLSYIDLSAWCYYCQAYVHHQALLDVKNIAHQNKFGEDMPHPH
Description: Inhibition of human recombinant HDAC6 using AMC labeled AC-peptide as substrate incubated for 1 hr by fluorescence analysis

Histone deacetylase 8 = biological target: T2, Histone deacetylase 8 (Homo sapiens, UniProt Q9BY41)
T2 sequence (Q9BY41 whole entry): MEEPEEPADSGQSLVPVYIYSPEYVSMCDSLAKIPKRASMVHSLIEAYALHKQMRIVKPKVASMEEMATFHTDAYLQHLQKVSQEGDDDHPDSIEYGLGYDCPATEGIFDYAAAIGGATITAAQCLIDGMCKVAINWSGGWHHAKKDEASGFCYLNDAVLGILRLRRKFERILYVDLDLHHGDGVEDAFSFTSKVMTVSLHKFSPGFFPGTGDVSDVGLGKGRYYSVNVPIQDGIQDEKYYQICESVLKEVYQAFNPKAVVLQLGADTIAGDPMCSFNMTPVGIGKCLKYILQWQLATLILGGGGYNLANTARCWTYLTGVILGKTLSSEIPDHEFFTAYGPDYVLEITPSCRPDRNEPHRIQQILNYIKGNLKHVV
Description: Inhibition of human recombinant HDAC8 using AMC labeled AC-peptide as substrate incubated for 1 hr by fluorescence analysis

HeLa [2] = assay: Induction of histone H3 acetylation in human HeLa cells incubated for 6 hrs by cytoblot assay; type: functional, cell-based
HeLa [3] = assay: Antiproliferative activity against human HeLa cells after 72 hrs by MTT assay; type: functional, cell-based
A-375 = assay: Antiproliferative activity against human A375 cells after 72 hrs by MTT assay; type: functional, cell-based; conditions: A-375, 72 h
[4] = biological target: T1, Protein deacetylase HDAC6; assay: Inhibition of HDAC6 in human HeLa cells assessed as induction of tubulin acetylation incubated for 6 hrs by cytoblot assay; type: cell-based

Row | Compound | IC50 (Histone deacetylase 1) | IC50 [1] | IC50 (Histone deacetylase 8) | also measured
1 | Cc1[nH]c2ccccc2c1CCNCc1ccc(/C=C/C(=O)NO)cc1 [PANOBINOSTAT] |  |  |  | Activity (Ramos): 16.6%; Activity (Mus musculus): -1.9%
2 | Cc1nc(N(C)c2ccc(OCCCCC(=O)NO)cc2)c2ccccc2n1 | 204 nM |  |  | 
3 | Cc1nc2c(c(N(C)c3ccc(OCCCCCC(=O)NO)cc3)n1)CCC2 | 120 nM | 20 nM | 1000 nM | 
4 | COc1ccc(N(C)c2nc(C)nc3ccccc23)cc1OCC(=O)NO | > 1000 nM | > 1000 nM | > 1000 nM | 
5 | Cc1nc2c(c(N(C)c3ccc(OCCCCC(=O)NO)cc3)n1)CCC2 | 212 nM | 63 nM | 1990 nM | 
6 | Cc1nc(N(C)c2cccc(OCC(=O)NO)c2)c2ccccc2n1 | > 1000 nM | > 1000 nM | > 1000 nM | 
7 | Cc1nc(N(C)c2ccc(OCC(=O)NO)cc2)c2ccccc2n1 |  |  |  | EC50 (HeLa [2]): 456 nM; IC50 (HeLa [3]): 171 nM; IC50 (A-375): 213 nM; EC50 [4]: 26.2 nM
8 | Cc1nc(N(C)c2cccc(OCCCCCC(=O)NO)c2)c2ccccc2n1 | 73 nM | > 1000 nM | > 1000 nM | 
9 | Cc1nc(N(C)c2cccc(OCCCCC(=O)NO)c2)c2ccccc2n1 | 306 nM | > 1000 nM | > 1000 nM | 
